{"source": "patent US11458155B1", "about": "“Active ingredient complexes, compositions and methods for hangover relief and to ameliorate alcohol-induced liver damage” (FULGENT LIFE INC., priority 2021, dated 2022)", "key": {"male C57BL/6J mice [1]": {"system": "male C57BL/6J mice", "test": "Blood ethanol concentration after ethanol ingestion (headspace gas chromatography)", "assay_type": "in vivo", "details": "oral/intragastric 500 mg/kg (Example 1: 250 or 500 mg/kg) before 8 ml/kg ethanol (40% w/v); FIG. 1A", "method": "Mice were randomly divided into a normal group (untreated group), a control group and a treatment group, with 8 mice in each group. […] The control group was given the same ethanol solution and corresponding distilled water, while the normal group was only given corresponding distilled water. At different time points of the experiment, the mice were anesthetized by intraperitoneal injection of 10% chloral hydrate (350 mg/kg body weight). Blood and liver tissues were extracted from each animal.\nEyeball blood samples (0.3 mL) were taken, each was put into an 8 mL headspace vial containing 1.2 mL 0.6 M perchloric acid, 0.5 mL trichloroacetic acid (10%) and 0.3 mL internal standard (160 mg/L tertiary butanol), and the concentrations of ethanol and acetaldehyde were determined with headspace gas chromatography.\nBlood samples were collected from the infraorbital venous plexus at different time points (as indicated) after the ethanol administration. Blood ethanol (FIG. 1A) and acetaldehyde (FIG. 1B) levels were determined. Each group contained 6-8 mice. Data are presented as the mean±SD."}, "rats": {"system": "rats", "details": "cited from earlier work"}, "mice [2]": {"system": "mice", "details": "cited from earlier work"}, "[3]": {"details": "cited from earlier work"}, "mice [4]": {"system": "mice", "details": "intraperitoneal injection of theanine, oral administration of ethanol; cited from earlier work"}, "[5]": {"details": "after oral administration; cited from earlier work"}, "glutamate receptors": {"system": "glutamate receptors", "details": "not as great as that of L-glutamic acid; cited from earlier work"}, "male C57BL/6J mice [6]": {"system": "male C57BL/6J mice", "test": "Liver MDA and SOD, oxidative damage caused by acute alcohol ingestion", "assay_type": "in vivo", "details": "500 mg/kg intragastric 15 min prior to 8 ml/kg ethanol (40% w/v), liver 6 hours after alcohol; for MDA content in the liver: FIG. 3A; for SOD activity in liver: FIG. 3B"}, "male C57BL/6J mice [7]": {"system": "male C57BL/6J mice", "test": "Plasma AST and ALT, acute alcohol-induced hepatotoxicity", "assay_type": "in vivo", "details": "500 mg/kg intragastric before 8 ml/kg ethanol (40% w/v), blood 6 hours after alcohol, vs model group"}, "male C57BL/6J mice [8]": {"system": "male C57BL/6J mice", "test": "Liver triglyceride (TG) level, lipid metabolism in acute alcoholic liver damage", "assay_type": "in vivo", "details": "500 mg/kg pretreatment, alcohol-loaded mice, vs alcohol exposure alone; FIG. 4A"}, "male C57BL/6J mice [9]": {"system": "male C57BL/6J mice", "test": "Serum very low density lipoprotein (VLDL), lipid metabolism in acute alcoholic liver damage", "assay_type": "in vivo", "details": "500 mg/kg pretreatment, alcohol-loaded mice, vs alcohol exposure alone; FIG. 4B"}, "cells": {"system": "cells", "details": "cited from earlier work"}, "C57BL/6J mice": {"system": "C57BL/6J mice", "details": "cited from earlier work"}, "male C57BL/6J mice [10]": {"system": "male C57BL/6J mice", "test": "Blood acetaldehyde concentration after ethanol ingestion (headspace gas chromatography)", "assay_type": "in vivo", "details": "FIG. 1B"}}}
{"molecule": "O=C1c2c(O)cc(O)cc2O[C@H](c2cc(O)c(O)c(O)c2)[C@H]1O", "note": "[DHM, Dihydromyricetin]", "values": [{"measurement": "ethanol in blood", "setting": "male C57BL/6J mice [1]", "value": "significantly reduce"}, {"measurement": "muscle relaxation induced by alcohol", "setting": "rats", "value": "prevent muscle relaxation"}, {"measurement": "blood alcohol levels", "setting": "mice [2]", "value": "reduce blood alcohol levels"}]}
{"molecule": "N[C@@H](CS)C(=O)O", "note": "[L-cysteine]", "values": [{"measurement": "stress and anxiety", "setting": "[3]; dose of 600 mg", "value": "relieved"}, {"measurement": "self-assessed severity of the hangover, nausea and headache", "setting": "[3]; dose of 1200 mg", "value": "improved"}]}
{"molecule": "CCNC(=O)CC[C@H](N)C(=O)O", "note": "[L-theanine]", "values": [{"measurement": "ethanol in blood", "setting": "male C57BL/6J mice [1]", "value": "significantly reduce"}, {"measurement": "effect with respect to alcoholic liver injury", "setting": "mice [4]", "value": "protective effect"}, {"measurement": "time to cross the blood-brain barrier", "setting": "[5]", "value": "≤ 30", "unit": "min"}, {"measurement": "binding affinity to glutamate receptors", "setting": "glutamate receptors", "value": "weak"}]}
{"molecule": "CC(=O)N[C@@H](CS)C(=O)O", "note": "[NAC, N-acetyl-cysteine]", "values": [{"measurement": "ethanol in blood", "setting": "male C57BL/6J mice [1]", "value": "significantly reduce"}, {"measurement": "MDA content in the liver", "setting": "male C57BL/6J mice [6]", "value": "significantly reduce"}, {"measurement": "SOD activity in liver", "setting": "male C57BL/6J mice [6]", "value": "increase"}]}
{"molecule": "NC(=O)C1=CN([C@@H]2O[C@H](COP(=O)(O)OP(=O)(O)OC[C@H]3O[C@@H](n4cnc5c(N)ncnc54)C(O)C3O)C(O)C2O)C=CC1", "note": "(some centres unmarked) [NADH, nicotinamide adenine dinucleotide (NAD)+hydrogen (H)]", "values": [{"measurement": "ethanol in blood", "setting": "male C57BL/6J mice [1]", "value": "significantly reduce"}, {"measurement": "plasma AST level", "setting": "male C57BL/6J mice [7]; FIG. 2A", "value": "significantly reduce"}, {"measurement": "plasma ALT level", "setting": "male C57BL/6J mice [7]; FIG. 2B", "value": "significantly reduce"}, {"measurement": "liver TG level", "setting": "male C57BL/6J mice [8]", "value": "decreased"}, {"measurement": "serum VLDL level", "setting": "male C57BL/6J mice [9]", "value": "decreased"}, {"measurement": "cell death caused by NAD+-depleting genotoxins", "setting": "cells; NADH-treated cells, e.g. hydrogen peroxide", "value": "resistant to cell death"}, {"measurement": "NAD+ increase compared to nicotinamide mononucelotide (NMN)", "setting": "cells; at the same concentrations", "value": "greater NAD+ increases"}, {"measurement": "apoptosis markers in cells", "setting": "cells", "value": "did not induce apoptosis markers"}, {"measurement": "MDA content in the liver", "setting": "male C57BL/6J mice [6]", "value": "significantly reduce"}, {"measurement": "SOD activity in liver", "setting": "male C57BL/6J mice [6]", "value": "increase"}, {"measurement": "liver NAD+/NADH ratio", "setting": "C57BL/6J mice", "value": "significantly increased"}, {"measurement": "NAD+ content in liver, blood, brain and fat", "setting": "C57BL/6J mice; intraperitoneal injection", "value": "significantly increased"}, {"measurement": "acetaldehyde in the blood", "setting": "male C57BL/6J mice [10]; after two hours after ethanol administration", "value": "significantly reduced"}, {"measurement": "blood acetaldehyde levels", "setting": "male C57BL/6J mice [10]; between 30 minutes and two hours after ethanol administration", "value": "significantly increased"}]}
